Reference: EPA's aquatic toxicity sets

What was measured:
[1] = test system: Daphnia magna; assay: 48 h LC50 (-log10 mol/L); higher = more toxic
[2] = test system: Pimephales promelas; assay: 96 h LC50 (-log10 mol/L); higher = more toxic
[3] = test system: Tetrahymena pyriformis; assay: 48 h IGC50 (-log10 mol/L); higher = more toxic

Structure (SMILES)	48 h LC50 (-log10 mol/L) [1]	further results
NC(=O)N1c2ccccc2C=Cc2ccccc21	4.23	–
COCC(C)OC(C)=O (centres undefined)	2.51	–
O=c1ccc2ccccc2o1	4.03	–
C=C[C@]1(C)C[C@@H](OC(=O)CSC2C[C@H]3CC[C@@H](C2)N3C)[C@]2(C)[C@H](C)CC[C@]3(CCC(=O)[C@H]32)[C@@H](C)[C@@H]1O (some centres undefined)	4.11	–
CCCCCOC(=O)Nc1nc(=O)n([C@@H]2O[C@H](C)[C@@H](O)[C@H]2O)cc1F	2.63	–
CCCCC(CC)COC(=O)CCCCC(=O)OCC(CC)CCCC (centres undefined)	5.75	–
CC(c1ccc(Cl)cc1)c1ccc(Cl)cc1	6.86	–
O=NN(c1ccccc1)c1ccccc1	4.4	–
CCN(CC)C(=S)SSC(=S)N(CC)CC	5.98	–
CC1(C)[C@H](C(=O)O[C@H](C#N)c2cccc(Oc3ccccc3)c2)[C@@H]1C(Br)C(Br)(Br)Br (some centres undefined)	9.95	–
CC(C)NCC(O)COc1ccc(CC(N)=O)cc1 (centres undefined)	3.9	–
COCC(=O)N(c1c(C)cccc1C)[C@H](C)C(=O)OC	3.54	–
CC(C)C1OCC=CCO1	2.27	–
CC(C)(C)C(=O)Cl	2.58	–
CC(C)CCCCCCCOP(=O)(Oc1ccccc1)Oc1ccccc1	7.1	–
COC1=CC(=O)C[C@@H](C)[C@]12Oc1c(Cl)c(OC)cc(OC)c1C2=O	2.51	–
Clc1cccc(Cl)c1Cl	4.75	–
CCOC(=O)c1ocnc1C	2.67	–
CN/C(=C\[N+](=O)[O-])NCCSCc1ccc(CN(C)C)o1	2.69	–
O=C1CN=C(c2ccccc2Cl)c2cc([N+](=O)[O-])ccc2N1	4.02	–
CC(C)NCC(O)COc1cccc2[nH]c3ccccc3c12 (centres undefined)	4.3	–
C1CCCC1	3.81	–
CCC(C)c1ccccc1OC(=O)NC (centres undefined)	6.32	–
FCC(F)(F)F	2.02	–
Clc1ccc(Cl)c(-c2cc(Cl)ccc2Cl)c1	6.99	–
O=C(NC(=O)c1c(F)cccc1F)Nc1ccc(Cl)cc1	7.8	–

Structure (SMILES)	48 h LC50 (-log10 mol/L) [1]	further results
O=c1cc[nH]c(=S)[nH]1	4.22	–
CN1CSC(=S)N(C)C1	5.47	–
ClCCOCCCl	2.78	–
COC(=O)Nc1cccc(OC(=O)Nc2cccc(C)c2)c1	4.65	–
CCNC(=S)Nc1ccccc1	3.35	–
CCCCNC(=O)OCC#CI	6.85	–
CC(C)NCC(O)c1ccc(NS(C)(=O)=O)cc1 (centres undefined)	2.96	–
BrC1CCCCC1	3.89	–
COc1ccc2cc([C@H](C)C(=O)O)ccc2c1	3.79	–
COc1cc(Cl)c(Cl)c(Cl)c1O	5.37	–
CC(C)CCCCCCCCCCN(CCCCCCCCCCC(C)C)CCCCCCCCCCC(C)C	5.96	–
COc1cccc(N)c1	5.64	–
CC(C)=CC1C(C(=O)OCc2cccc(Oc3ccccc3)c2)C1(C)C (centres undefined)	7.69	–
NC(=O)N/N=C/c1ccc([N+](=O)[O-])o1	3.84	–
CC1(C)[C@@H]2CC[C@@]1(C)[C@H](OC(=O)CSC#N)C2	6.47	–
c1ccc2cc3c(ccc4ccccc43)cc2c1	6.22	–
c1ccc2c(c1)ccc1ccccc12	5.41	–
CCCN(CCC)C(=O)SCC	4.61	–
Cc1cc(C)cc(OCC2CNC(=O)O2)c1 (centres undefined)	3.47	–
c1ccc2c(c1)sc1ccccc12	5.6	–
CCCC(=O)Nc1ccc(OCC(O)CNC(C)C)c(C(C)=O)c1 (centres undefined)	3.82	–
FC(F)C(F)(F)OCC(Cn1cncn1)c1ccc(Cl)cc1Cl (centres undefined)	4.71	–
CC[C@H]1OC(=O)[C@H](C)[C@@H](O[C@H]2C[C@@](C)(OC)[C@@H](O)[C@H](C)O2)[C@H](C)[C@@H](O[C@@H]2O[C@H](C)C[C@H](N(C)C)[C@H]2O)[C@](C)(OC)C[C@@H](C)C(=O)[C@H](C)[C@@H](O)[C@]1(C)O	4.6	–
CN(C)C(=S)N(C)C	2.23	–
Nc1cccc(Cl)c1	6.11	–
CN1CCCC1=O	4.91	–

Structure (SMILES)	48 h LC50 (-log10 mol/L) [1]	further results
NC(N)=Nc1nc(CSCC/C(N)=N/S(N)(=O)=O)cs1	2.93	–
O=CCCCC=O	3.79	–
CNC(=S)N(C)C	2.19	–
COc1ccccc1O	3.68	–
C[C@]12C/C(=C/O)C(=O)C[C@@H]1CC[C@@H]1[C@@H]2CC[C@@]2(C)[C@H]1CC[C@]2(C)O	4.54	–
Cc1cccc([N+](=O)[O-])c1C	4.56	–
COc1c(Cl)c(Cl)c(Cl)c(Cl)c1Cl	7.01	–
CCCOC(=O)NCCCN(C)C	3.25	–
Cc1ccc(Cl)cc1[N+](=O)[O-]	4.27	–
c1ccc2c(c1)ccc1oc3ccccc3c12	4.74	–
CC(Cc1ccc(C(C)(C)C)cc1)CN1CCCCC1 (centres undefined)	5.72	–
Clc1cc(Cl)c(-c2cc(Cl)c(Cl)cc2Cl)cc1Cl	8.44	–
CN(C)C(N)=S	3.39	–
Cc1csc2ccccc12	4.76	–
CCc1ccccc1N	4.18	–
CCCC1COC(Cn2cncn2)(c2ccc(Cl)cc2Cl)O1 (centres undefined)	4.72	–
C1CCNCC1	3.93	–
Cc1c(OCC(F)(F)F)ccnc1CS(=O)c1nc2ccccc2[nH]1 (centres undefined)	4.22	–
Cc1ccc(Cl)cc1	4.93	–
CC(=O)CC(c1ccccc1)c1c(O)c2ccccc2oc1=O (centres undefined)	2.96	–
O=c1[nH]cc(F)c(=O)[nH]1	3.72	–
Oc1ccc(Oc2ccccc2)cc1	–	96 h LC50 (-log10 mol/L) [2]: 4.58; 48 h IGC50 (-log10 mol/L) [3]: 4.36
Cc1nc(C)c(C)o1	–	96 h LC50 (-log10 mol/L) [2]: 2.4; 48 h IGC50 (-log10 mol/L) [3]: 1.99
O=Cc1ccc(Oc2ccccc2)cc1	–	96 h LC50 (-log10 mol/L) [2]: 4.63; 48 h IGC50 (-log10 mol/L) [3]: 4.26
